Data from US5164300A, “Method for determining activity of retroviral protease” (Washington University, priority 1990, dated 1992).
Where a SMILES comes first, the peptide text is derived from it. [ ]: non-standard residue; d: D form. Phe(4-NO2) = N[C@@H](Cc1ccc([N+](=O)[O-])cc1)C(=O)O; Nle = CCCC[C@H](N)C(=O)O; 2Abz = Nc1ccccc1C(=O)O

Legend:
[1] = biological target: T1, HIV protease (HIV-1 M:B_ARV2/SF2, UniProt P03369); assay: HPLC HIV protease assay (cleavage of peptide substrates); type: biochemical, human immunodeficiency virus (HIV)
T1 construct: synthetic [Aba67,Aba95] homodimer (Schneider and Kent) or cloned enzyme from E. coli, interchangeably
Method: HPLC Assay. The HPLC HIV protease assay was conducted using either synthetic HIV protease [Schneider and Kent, Cell 54, 363-368 (1988)] in which the two Cys residues (Cys^67, Cys^95) were replaced by the isosteric α-aminobutyric acid to eliminate the complications of free sulfhydryl groups, or cloned material expressed in E. coli. In all cases examined, the cleavage patterns and inhibition results were identical. Synthetic HPLC-purified protease (0.05 mg/ml) was dissolved in assay buffer (20 mM phosphate, 20% glycerol, 0.1% CHAPS, pH 6.4). 20 μl of 0.1 mM substrate was mixed with 20 μl assay buffer and 10 μl of HIV protease stock were added and then incubated at 25° for the desired time. The reaction was stopped by the addition of 50 μl of 10% TFA. The sample was applied to a C18 HPLC column developed with 0.05% TFA for 5 min followed by a gradient of 0- 40% acetonitrile in 40 min. For inhibitor studies, 10 μl of the protease solution was preincubated at 25° for 10 min with the 20 μl of 0.1 mM inhibitor (dissolved in DMSO and diluted to 0.1 mM with assay buffer). Then 20 μl of test substrate, acetyl-Thr-Ile-Met-Met-Gln-Arg-NH2 or Abz-NF^* -6, was added in order to determine inhibition of cleavage. Reactions were stopped and cleavage rates were monitored by HPLC as above. […]
Fluorescence Assay. Fluorescence measurements on 96-well ELISA plates were made with the Titertek Fluoroskan II, version 3.1. […] Ten μl of a stock solution (0.1 mg/ml) of HIV protease was incubated with five different concentrations of Abz-NF^* -6 in a final volume of 100 μl at 37° C. with the increase in fluorescence monitored in each well every five minutes. […] A standard curve relating changes in fluorescent intensity to changes in concentration of product was used to convert fluorescence changes into molar velocities. […] Sixty μl of 10% TFA was added to stop the reaction and the amount of cleavage determined by HPLC. […] By the amount of substrate remaining, an estimated Ki allows appropriate choice of concentration ranges for the inhibitor for the fluorescence assay.

[2] = biological target: T2, synthetic HIV protease (HIV-1 M:B_ARV2/SF2, UniProt P03369); assay: Fluorescence assay, kinetic measurements of cleavage by synthetic HIV protease; type: biochemical, human immunodeficiency virus (HIV)
T2 construct: homodimer
Method: Fluorescence Assay. Fluorescence measurements on 96-well ELISA plates were made with the Titertek Fluoroskan II, version 3.1. An excitation filter of 355 nm and an emission filter of 430 nm was used. Ten μl of a stock solution (0.1 mg/ml) of HIV protease was incubated with five different concentrations of Abz-NF^* -6 in a final volume of 100 μl at 37° C. with the increase in fluorescence monitored in each well every five minutes. A stock solution of 1 mM Abz-NF^* -6 in DMSO was used. A standard curve relating changes in fluorescent intensity to changes in concentration of product was used to convert fluorescence changes into molar velocities. In order to predetermine the concentration range for Ki determination of inhibitors, it was found convenient to do a preliminary assay by HPLC. Twenty μl of 0.1 mM inhibitor in assay buffer (pH 6.4) and 10 μl of HIV protease (stock solution of 0.05 mg/ml) were preincubated for 5-10 min at 25° C. Twenty μl of 0.1 mM Abz-NF^* -6 was added and the reaction continued for 1 hour. Sixty μl of 10% TFA was added to stop the reaction and the amount of cleavage determined by HPLC. […] By the amount of substrate remaining, an estimated Ki allows appropriate choice of concentration ranges for the inhibitor for the fluorescence assay.
The chromogenic substrates of Nashed et al., Biochem. Biophys. Res. Commun. 163, 1079-1085 (1989), had Km 's estimated to be greater than […].

[3] = test system: purified HIV protease expressed in E. coli; conditions: estimated, Nashed et al.; cited from earlier work

In the case of `CCCC[C@H](NC(=O)[C@@H](NC(=O)c1ccccc1N)[C@@H](C)CC)C(=O)N[C@@H](Cc1ccc([N+](=O)[O-])cc1)C(=O)N[C@@H](CCC(N)=O)C(=O)N[C@@H](CCCNC(=N)N)C(N)=O` [Abz-Ile-Nle-Phe(p-NO2)-Gln-Arg-NH2] (H-[2Abz]I[Nle][Phe(4-NO2)]QR-NH2), the cleavage efficiency ([1]; analog with the Abz group at position P3, compared with Abz-NF*-6) is reported as “dramatically reduced”.
With `CCCC[C@H](NC(=O)[C@@H](NC(=O)[C@@H](NC(=O)c1ccccc1N)[C@@H](C)O)[C@@H](C)CC)C(=O)N[C@@H](Cc1ccc([N+](=O)[O-])cc1)C(=O)N[C@@H](CCC(N)=O)C(=O)N[C@@H](CCCNC(=N)N)C(N)=O` [Abz-NF^* -6, Abz-Thr-Ile-Nle-Phe(p-NO2)-Gln-Arg-NH2] (H-[2Abz]TI[Nle][Phe(4-NO2)]QR-NH2) the “amount of cleavage determined by HPLC” value ([1]; 0.1 mM substrate, 1 hour, in the absence of inhibition) was “complete cleavage”, the Km ([2]; Lineweaver-Burk plot, velocities from the linear phase) was 110 µM and the Kcat ([2]; synthetic HIV protease) was 2.9 s⁻¹. The Vmax ([2]; synthetic HIV protease) was 3.45 mM-mil^-1 and the “ratio Kcat /Km” value ([2]; synthetic HIV protease) was 26,364 M^-1 s^-1.
With `CCCC[C@H](NC(=O)[C@@H](NC(=O)[C@@H](NC(C)=O)[C@@H](C)O)[C@@H](C)CC)C(=O)N[C@@H](Cc1ccc([N+](=O)[O-])cc1)C(=O)N[C@@H](CCC(N)=O)C(=O)N[C@@H](CCCNC(=N)N)C(N)=O` [Ac-Thr-Ile-Nle-Phe(p-NO2)-Gln-Arg-NH2] (Ac-TI[Nle][Phe(4-NO2)]QR-NH2) the “cleavage under the conditions of HPLC assay” value ([1]; incubation times of one hour) was “showed cleavage”.
In the case of `CC(C)C[C@H](NC(=O)[C@@H]1CCCN1C(=O)[C@H](Cc1ccc([N+](=O)[O-])cc1)NC(=O)[C@H](C)NC(=O)[C@H](CCC(N)=O)NC(=O)[C@H](Cc1ccccc1)NC(=O)[C@@H](N)[C@@H](C)O)C(=O)N[C@@H](CCCNC(=N)N)C(=O)N[C@@H](C)C(=O)O` [H-Thr-Phe-Gln-Ala-Phe(p-NO2)-Pro-Leu-Arg-Ala-OH] (H-TFQA[Phe(4-NO2)]PLRA-OH), the “ratio Kcat /Km” value [3] is given as ~23,000 M^-1 s^-1.
